Where two headings read alike, the source gives them in different places.
Key:
Type in all cases: cell-based
SERT S404C/C109A [1] = target: T1, SERT S404C/C109A (Rattus norvegicus, UniProt P31652, C109A/S404C); assay: MTSET inhibition of APP+ uptake in live cells (extracellular pathway cysteine accessibility)
T1 construct: expressed in transfected cells
Description: (§1) Figure 3 Reactivity of the extracellular cysteine mutants with MTSET. (A) MTSET concentration-dependent inhibition of APP^+ uptake. The cells stably expressing C109A, Y107C/C109C, or S404C/C109A were incubated for 15 min with indicated concentrations of MTSET. The MTSET concentration giving half-maximal inhibition of APP^+ accumulation in the cells was used to calculate inactivation rate constants as plotted in (B). […] Representative images of APP^+ uptake by C109A, Y107C/C109A, or S404C/C109A under various MTSET concentrations were shown in Supplemental Figure S1. […] (B) Rate constants of MTSET inhibition of APP^+ uptake. At the half-maximal concentration, the half-time is the assay time (15 min) and the first-order rate constant is 7.7 × 10^−4 s^−1. This rate constant was divided by the half maximal MTSET concentration from (A) to obtain the pseudo first-order modification rate constant. Error bars represent SEM of three experiments.
(§2) The cells stably expressing Y107C/C109A or S404C/C109A were preincubated with indicated ligands and MTSET at a concentration of 0.01 mM for Y107C/C109A or 0.002 mM for S404C/C109A at 22 °C for 15 min, respectively. At the end of this incubation, cells were washed free of MTSET and ligands into KRH buffer containing NaCl and APP^+. APP^+ uptake was measured as described under “Materials and Methods”. Error bars represent SEM from three experiments. Asterisks and hashtags indicate statistically significant changes (p < 0.05) in the accumulated APP^+ fluorescence compared with the corresponding control (MTSET alone).
Accessibility of the cysteine residues in the extracellular pathway was measured by reactivity of Y107C/C109A and S404C/C109A mutants with MTSET. The cells stably expressing Y107C/C109A or S404C/C109A were incubated with MTSET over a range of concentrations in HEPES buffer containing indicated ligands or ions at 22 °C for 15 min. After excess MTSET and ligands were removed by rapid 3 × washing with the same buffer, the cells were then incubated with APP^+ at a final concentration of 2 μM in KRH buffer at 22 °C for another 5 min. The extent of APP^+ accumulated in the cells was determined by confocal imaging analysis in the live cells. To measure the effects of antidepressants, substrate 5-HT, or other ligands such as 5-HTP or tryptophan, where added, was present at 10 μM. To measure the effects of ions, 150 mM […] (NMDG) gluconate, and NMDG chloride, sodium isethionate, or NaCl was used as indicated. These measurements of reactivity depend on the ability of MTSET to inactivate APP^+ transport activity by an allosteric mechanism. The MTSET concentration causing half-maximal inactivation was determined and used to calculate the rate constant for cysteine modification, as described previously.

SERT S277C/X5C [2] = target: T2, SERT S277C/X5C (Rattus norvegicus, UniProt P31652, C109A/C15A/C21A/C357I/C622A/S277C); assay: MTS reagent inhibition of ASP+ binding in digitonin-permeabilized cells (cytoplasmic pathway cysteine accessibility)
T2 construct: expressed in transfected cells
Description: After 3 × rapid washing with KRH buffer, APP^+ or ASP^+ accumulation was measured as described under “Materials and Methods”. […] These representative images were parallelly acquired from one experiment. […] After 3 × washing, ASP^+ binding to the cell membrane was measured as described under “Materials and Methods”. […] (D) The effects of MTSET on ASP^+ binding of S277C/X5C and X5C. […] After 3 × rapid washing, ASP^+ binding was measured as described under “Materials and Methods”.
After washing to remove excess MTSEA and ligands, ASP^+ binding was measured as described under “Materials and Methods”. […] The IC50 values of MTSEA inhibition of ASP^+ binding were converted to rate constants.
The cells stably expressing Y107C/C109A were treated at 22 °C for 15 min with indicated concentrations of MTSET in the absence or presence of 10 μM vilazodone. After washing to remove excess MTSET and vilazodone, APP^+ uptake was measured as described under “Materials and Methods”. […] The IC50 values of MTSET inhibition were used to calculate rate constants as described under “Materials and Method”. Error bars represent SEM from three experiments. […] After washing to remove excess MTSEA and vilazodone, ASP^+ binding was measured as described under “Materials and Methods”. […] The IC50 values of MTSEA inhibition of ASP^+ binding were converted to rate constants. […]
For cytoplasmic pathway accessibility, measurements were performed with the cells stably expressing S277C/X5C. […] The cells, then, were washed free of unreacted MTSEA and ligands, ASP^+ binding was measured by adding 500 μL KRH buffer containing 10 μM ASP^+ and incubating at 22 °C for 5 min. Excess ASP^+ was removed by 3 × rapid washing with KRH buffer and ASP^+ fluorescence retained in the cell membrane was measured by confocal imaging analysis in the permeabilized cells. […] The MTSEA IC50 value was determined and used to calculate the rate constant for S277C/X5C modification.

SERT Y107C/C109A [3] = target: T3, SERT Y107C/C109A (Rattus norvegicus, UniProt P31652, C109A/Y107C); assay: MTSET inhibition of APP+ uptake in live cells (extracellular pathway cysteine accessibility)
T3 construct: expressed in transfected cells
Description: as §1
(A) MTSET concentration-dependent inhibition of APP^+ uptake. […] After washing to remove excess MTSET and ligands, APP^+ uptake was measured as described under “Materials and Methods”. […] (B) Rate constants of MTSET inhibition of APP^+ uptake. The IC50 values of MTSET inhibition were used to calculate rate constants as described under “Materials and Methods”. Error bars represent SEM from three experiments.
as §2
The cells stably expressing Y107C/C109A were treated at 22 °C for 15 min with indicated concentrations of MTSET in the absence or presence of 10 μM vilazodone. After washing to remove excess MTSET and vilazodone, APP^+ uptake was measured as described under “Materials and Methods”. […] The IC50 values of MTSET inhibition were used to calculate rate constants as described under “Materials and Method”. Error bars represent SEM from three experiments. […] After washing to remove excess MTSEA and vilazodone, ASP^+ binding was measured as described under “Materials and Methods”. […] The IC50 values of MTSEA inhibition of ASP^+ binding were converted to rate constants.

SERT S277C/X5C [4] = target: T2, SERT S277C/X5C; assay: Kinetic analysis of APP+ or ASP+ uptake by fluorescence imaging in stably expressing cells; details: for Km / Vmax: uptake by cells stably expressing S277C/X5C, 22 °C, 5 min
SERT S404C/C109A [5] = target: T1, SERT S404C/C109A; assay: as above; details: for Km / Vmax: uptake by cells stably expressing S404C/C109A, 22 °C, 5 min
SERT Y107C/C109A [6] = target: T3, SERT Y107C/C109A; assay: as above; details: 22 °C, 5 min
WT-SERT = target: T4, WT-SERT (Rattus norvegicus, UniProt P31652); assay: as above; details: 22 °C, 5 min, mean ± SEM of three experiments
T4 construct: expressed in transfected cells
Description: Figure 1 Kinetic analysis and ion requirements for APP^+ or ASP^+ uptake by SERT. (A) Kinetic analysis for APP^+ or ASP^+ uptake by SERT. […] After washing to remove excess APP^+ or ASP^+, the accumulated fluorescence within the cells (n ≥ 30) were counted and normalized to the cell areas, as described under “Materials and Methods”. […] (B) Ion-dependence of APP^+ or ASP^+ uptake. APP^+ or ASP^+ uptake was measured by incubating the cells stably expressing WT- SERT with APP^+ at 2 μM or ASP^+ at 10 μM in HEPES buffer containing 150 mM NMDGCl, sodium isethionate, or NaCl, respectively. Error bars represent SEM of three experiments.
The cells stably expressing SERT-WT or mutants were wet mounted on polylysine-coated glass slides and applied for indicated treatments. In brief, the cells were washed twice with 500 μL KRH buffer containing 20 mM HEPES, pH 7.4, 120 mM NaCl, 1.3 mM KCl, 2.2 mM CaCl2, 1.2 mM MgSO4, and 0.1% (w/v) glucose. APP^+ or ASP^+ accumulation was measured by adding 500 μL KRH buffer containing 2 μM APP^+ or 10 μM ASP^+ and incubating for 5 min at 22 °C. Excess APP^+ or ASP^+ was then removed by rapid washing three times with 500 μL KRH buffer. The extent of APP^+ or ASP^+ accumulated in the cells was determined with confocal imaging analysis.
Images were acquired at 22 °C using a 20 or 60 × water immersion objective with the Zeiss LSM 900 confocal microscope. APP^+ and ASP^+ were excited by an argon laser with excitation peak at 488 nm. APP^+ fluorescence was captured at 490–565 nm and ASP^+ fluorescence at 600–650 nm. Images were analyzed using National Institutes of Health ImageJ v1.53q. Fluorescence intensity in each cell was counted and normalized to the cell area (mean fluorescence). To obtain ASP^+ binding on the cell surface, intracellular ASP^+ fluorescence intensity was subtracted from total fluorescence in each cell, and the resulting ASP^+ fluorescence on the cell surface was then normalized to the cell membrane area.

[7] = S404C/C109A, MTSET 0.002 mM, ligand 10 μM, 22 °C, 15 min
[8] = Y107C/C109A, MTSET 0.01 mM, ligand 10 μM, 22 °C, 15 min

With `NCCc1c[nH]c2ccc(O)cc12` [5-HT, 5-hydroxytrypatamine] the “effect of ligand on reactivity with MTSET” value (from here on “effect of ligand”) (SERT S404C/C109A [1]; [7]) was “significantly decreased the reactivity”, the “increase of rate constant of MTSEA modification compared with control” value (SERT S277C/X5C [2]; S277C/X5C, 10 μM ligand in the presence of NaCl, 25 μg/mL digitonin) was ~ 2 folds and the “decrease of MTSET rate constant compared with control” value (SERT Y107C/C109A [3]; Y107C/C109A, 10 μM ligand with Na+ and Cl−, control MTSET alone) was about 2 folds. The “effect of ligand” value (SERT Y107C/C109A [3]; [8]) was “significantly decreased the reactivity”.
For `N[C@@H](Cc1c[nH]c2ccccc12)C(=O)O` [Trp, tryptophan], the “effect of ligand” value (SERT S404C/C109A [1]) was “little effect on the reactivity” and the “effect of ligand” value (SERT Y107C/C109A [3]) was “little effect on the reactivity”.
With `CN(C)CCCN1c2ccccc2CCc2ccccc21` [imipramine] the “effect of ligand” value (SERT S404C/C109A [1]; [7]) was “markedly increased the reactivity” and the “effect of ligand” value (SERT Y107C/C109A [3]; [8]) was “markedly increased the reactivity”.
`CN(C)c1ccc(-c2cc[n+](C)cc2)cc1` [APP^+, 4-[4-(dimethylamino)phenyl]-1-methylpyridinium] showed a Km (SERT S277C/X5C [4]) of 1.99 ± 0.05 µM, a Vmax (SERT S277C/X5C [4]) of 26.5 ± 1.1 AFU and a Km (SERT S404C/C109A [5]) of 2.07 ± 0.04 µM. It also gave a Vmax (SERT S404C/C109A [5]) of 34.9 ± 1.2 AFU, a Km (SERT Y107C/C109A [6]) of 2.39 ± 0.04 µM and a Vmax (SERT Y107C/C109A [6]) of 39.4 ± 1.8 AFU. It also gave a Km (WT-SERT) of 2.63 ± 0.06 µM and a Vmax (WT-SERT) of 30.5 ± 1.4 AFU.
In the case of `N#Cc1ccc2[nH]cc(CCCCN3CCN(c4ccc5oc(C(N)=O)cc5c4)CC3)c2c1` [vilazodone], the “effect on Cys277 reactivity with MTSEA” value (SERT S277C/X5C [2]; digitonin-permeabilized cells expressing S277C/X5C, 10 μM vilazodone) is reported as “decreased Cys277 reactivity” and the “effect on Cys107 reactivity with MTSET” value (SERT Y107C/C109A [3]; intact cells expressing Y107C/C109A, 10 μM vilazodone) is reported as “increased Cys107 reactivity”.
For `N[C@@H](Cc1c[nH]c2ccc(O)cc12)C(=O)O` [5-HTP, 5-hydroxytryptophan], the “effect of ligand” value (SERT S404C/C109A [1]) was “little effect on the reactivity” and the “effect of ligand” value (SERT Y107C/C109A [3]) was “little effect on the reactivity”.
In the case of `CN(C)c1ccc(C=Cc2cc[n+](C)cc2)cc1` [ASP^+, 4-(4-(dimethylamino)styryl)-N-methylpyridinium], the “Vmax value relative to the WT” value (SERT S277C/X5C [4]; S277C/X5C, ASP+ as substrate) is reported as about 50%, the Km (SERT S277C/X5C [4]) is reported as 9.66 ± 0.94 µM and the Vmax (SERT S277C/X5C [4]) is reported as 40.2 ± 3.0 AFU. The “Vmax value relative to the WT” value (SERT S404C/C109A [5]; S404C/C109A, ASP+ as substrate) was about 70%, the Km (SERT S404C/C109A [5]) was 8.87 ± 0.59 µM and the Vmax (SERT S404C/C109A [5]) was 53.2 ± 3.8 AFU. The Km (SERT Y107C/C109A [6]) was 9.32 ± 0.48 µM, the Vmax (SERT Y107C/C109A [6]) was 59.9 ± 4.2 AFU and the Km (WT-SERT) was 8.52 ± 0.15 µM. For the same compound, the Vmax (WT-SERT) was 75.8 ± 5.3 AFU.

From paper PMC9503009, “Determining Ligand and Ion-Induced Conformational Changes in Serotonin Transporter with Its Fluorescent Substrates” (International Journal of Molecular Sciences, 2022)
